In patent publication US8859541B2, “6-alkynylpyridines” (Boehringer Ingelheim International GmbH, priority 2012, dated 2014):

Target: T1, XIAP BIR3 (Homo sapiens, UniProt P98170)
T1 construct: covering amino acids 241 to 356; XIAP BIR3; made in house; host or cells: E. coli
Assay: XIAP BIR3 binding assay (DELFIA), displacement of SMAC peptide
Details: GST-fusion BIR3 domain (aa 241 to 356) 10 nM, SMAC peptide 10 nM; activity of the (S)-isomers
Procedure: Biological Methods XIAP BIR3 and cIAP1 BIR3 Binding Assays (DELFIA)
Peptide […]-Lys(Biotin), representing the N-terminus of mature human SMAC (SMAC peptide), was used as interaction partner in the protein-peptide interaction assay.
BIR3 domains (10 nM) were incubated with SMAC peptide (10 nM) in Assay Buffer (50 mM Tris, 120 mM NaCl, 0.1% BSA, 1 mM DTT, 0.05% TritonX100) for one hour at room temperature in the presence of inhibitiory compounds. The assay mixture was transferred to a strepatvidin coated plate and incubated for one hour at room temperature to allow binding of the biotinylated peptide and associated BIR3 domains to the plate. After several washing steps Eu labeled anti-GST antibody (e.g. Perkin Elmer DELFIA Eu-N1-antiGST AD0250) was added to detect BIR3 domain-SMAC peptide interactions according to Perkin Elmer's instructions. […] Time resolved Europium fluoresecence was measured in a Wallac Victor using Standard assay settings.
DELFIA assay results were plotted against compound concentrations and Software GraphPad Prizm was used to calculate half maximal inhibitory concentrations (IC50 values).

T1 sequence (P98170 241-356): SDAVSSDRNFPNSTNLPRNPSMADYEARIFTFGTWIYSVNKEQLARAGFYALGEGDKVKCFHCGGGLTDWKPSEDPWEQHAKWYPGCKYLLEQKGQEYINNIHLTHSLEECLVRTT

| Compound | IC50 |
| --- | --- |
| CNC(C)C(=O)Nc1ccc(-c2cncc(N)c2)c(C#Cc2ccccc2)n1 (stereo not shown) [Example 128, N-[5-(5-aminopyridin-3-yl)-6-(2-phenylethynyl)pyridin-2-yl]-2-(methylamino)propanamide] | 101 nM |
| CC(N)C(=O)Nc1cccc(C#Cc2cc(Cl)cc(Cl)c2)n1 (stereo not shown) [Example 231, 2-amino-N-[6-[2-(3,5-dichlorophenyl)ethynyl]pyridin-2-yl]propanamide] | 4860 nM |
| CC(N)C(=O)Nc1cccc(C#Cc2ccncc2)n1 (stereo not shown) [Example 218, 2-amino-N-[6-(2-pyridin-4-ylethynyl)pyridin-2-yl]propanamide] | 6540 nM |
| CC(N)C(=O)Nc1cccc(C#Cc2cscn2)n1 (stereo not shown) [Example 238, 2-amino-N-[6-[2-(1,3-thiazol-4-yl)ethynyl]pyridin-2-yl]propanamide] | 7190 nM |
| CNC(C)C(=O)Nc1ccc(-c2ccc(C(=O)OC)nc2)c(C#Cc2cc(F)cc(F)c2)n1 (stereo not shown) [Example 151, methyl 5-[2-[2-(3,5-difluorophenyl)ethynyl]-6-[[2-(methylamino)propanoyl]amino]-pyridin-3-yl]pyridine-2-carboxylate] | 326 nM |
| CNC(C)C(=O)Nc1ccc(-c2cccc(C(=O)O)c2OC)c(C#Cc2ccccc2)n1 (stereo not shown) [Example 141] | 558 nM |
| CNC(C)C(=O)Nc1ccc(NC(=O)C2CCOCC2)c(C#Cc2ccccc2)n1 (stereo not shown) [Example 246, N-[6-[[2-(methylamino)-propanoyl]amino]-2-(2-phenylethynyl)pyridin-3-yl]-oxane-4-carboxamide] | 1520 nM |
| CNC(C)C(=O)Nc1ccc(-c2cc(C(=O)OC)ccc2OC)c(C#Cc2ccccc2)n1 (stereo not shown) [Example 131, methyl 4-methoxy-3-[6-[[2-(methylamino)propanoyl]amino]-2-(2-phenylethynyl)pyridin-3-yl]-benzoate] | 305 nM |
| CNC(=O)c1ccc(C#Cc2nc(NC(=O)C(C)NC)ccc2-c2c(C)nc3ccccn23)cn1 (stereo not shown) [Example 62, N-methyl-5-[2-[6-[[2-(methyl-amino)propanoyl]amino]-3-(2-methylimidazo[1,2-a]pyridin-3-yl)pyridin-2-yl]ethynyl]pyridine-2-carboxamide] | 620 nM |
| CNC(C)C(=O)Nc1ccc(NC(=O)C2CCCC2)c(C#Cc2ccccc2)n1 (stereo not shown) [Example 245, N-[6-[[2-(methylamino)-propanoyl]amino]-2-(2-phenylethynyl)pyridin-3-yl]-cyclopentanecarboxamide] | 1290 nM |
| CNC(C)C(=O)Nc1ccc(-c2cncnc2)c(C#Cc2ccc3ccncc3c2)n1 (stereo not shown) [Example 18, N-[6-(2-isoquinolin-7-yl-ethynyl)-5-pyrimidin-5-ylpyridin-2-yl]-2-(methyl-amino)propanamide] | 745 nM |
| CNC(C)C(=O)Nc1ccc(-c2cc(C#N)ccc2Cl)c(C#Cc2ccccc2)n1 (stereo not shown) [Example 117, N-[5-(2-chloro-5-cyanophenyl)-6-(2-phenylethynyl)pyridin-2-yl]-2-(methylamino)propanamide] | 406 nM |
| CC(N)C(=O)Nc1ccc(-c2c(Cl)cccc2Cl)c(C#Cc2ccccc2)n1 (stereo not shown) [Example 103, 2-amino-N-[5-(2,6-dichlorophenyl)-6-(2-phenyl-ethynyl)pyridin-2-yl]propanamide] | 3040 nM |
| CNC(C)C(=O)Nc1ccc(-c2cncnc2)c(C#Cc2ccc3scnc3c2)n1 (stereo not shown) [Example 15, N-[6-[2-(1,3-benzothiazol-5-yl)ethynyl]-5-pyrimidin-5-ylpyridin-2-yl]-2-(methyl-amino)propanamide] | 711 nM |
| CNC(C)C(=O)Nc1ccc(-c2cnccc2OC)c(C#Cc2ccc3cnccc3c2)n1 (stereo not shown) [Example 153, N-[6-(2-isoquinolin-6-ylethynyl)-5-(4-methoxypyridin-3-yl)-pyridin-2-yl]-2-(methylamino)-propanamide] | 1240 nM |
| CC(N)C(=O)Nc1cccc(C#Cc2cncs2)n1 (stereo not shown) [Example 239, 2-amino-N-[6-[2-(1,3-thiazol-5-yl)ethynyl]pyridin-2-yl]propanamide] | 4580 nM |
